Data reported in patent publication US7521590B2, “Phospholipase C β1 (PLCβ1) knockout mice as a model system for testing schizophrenia drugs” (Korea Institute of Science and Technology, priority 2006, dated 2009).

Assays:
wild-type mice = test: Prepulse inhibition (PPI) of acoustic startle response in wild-type mice; type: in vivo, mouse; details: 0.2 mg/kg i.p. 45 minutes before the test, vs vehicle
Method: (§1) PPI tests were carried out with 26 responder mice 13˜15 weeks old by using a single acoustic startle chamber (Coulbourn Instruments, USA), one mouse at a time. The startle reflex was triggered by a pulse stimulus in the form of a 40 msec, 120 dB burst of white noise (SS). Inhibition of the SS-elicited startle response was achieved using a 20 msec-prepulse stimulus of various intensities (74, 82, and 90 dB white noise) that preceded SS by 100 msec.
(§2) The test was composed of a series of 7 blocks, each of which was a “semi-random” mixture of 8 different trial types (no stimulus, SS only, three PP only, three PP plus SS), separated by 10 to 15-second intertrial intervals. The percent prepulse inhibition (%PPI) was calculated as [1−(response to PP-SS coupling/response to SS only)]×100.
(§3) Haloperidol (0.2 mg/kg body weight) was intraperitonealy (i.p.) administered 45 minutes before the test, using 0.5% dimethylsulfoxide (DMSO) in saline (0.9% NaCl) as the vehicle. Haloperidol (Tocris Cookson, UK) stock solution was prepared in DMSO and stored at […] for less than a month.

PLCβ1−/− mice = test: Prepulse inhibition (PPI) of acoustic startle response in PLCβ1−/− mice; type: in vivo, mouse; details: 0.2 mg/kg i.p. 45 minutes before the test, prepulse 74, 82, 90 dB, p<0.05 vs vehicle
Method: as §1, §2, §3

## O=C(CCCN1CCC(O)(c2ccc(Cl)cc2)CC1)c1ccc(F)cc1 [haloperidol, Haloperidol]
wild-type mice
  effect on the PPI (%PPI): not effective
PLCβ1−/− mice
  effect on the PPI deficit (%PPI): completely reversed
